Assays:
PARP activity = conditions: various cell lines, hydrogen peroxide, cited from earlier work
Human LAG-3 = target: T1, Human LAG-3 (Homo sapiens, UniProt P18627); assay: SPR binding to recombinant soluble human LAG-3
T1 construct: either recombinant soluble or cell-surface-expressed human and cynomolgus monkey (cyno) LAG-3
T1 sequence (P18627 23-450 limits assumed): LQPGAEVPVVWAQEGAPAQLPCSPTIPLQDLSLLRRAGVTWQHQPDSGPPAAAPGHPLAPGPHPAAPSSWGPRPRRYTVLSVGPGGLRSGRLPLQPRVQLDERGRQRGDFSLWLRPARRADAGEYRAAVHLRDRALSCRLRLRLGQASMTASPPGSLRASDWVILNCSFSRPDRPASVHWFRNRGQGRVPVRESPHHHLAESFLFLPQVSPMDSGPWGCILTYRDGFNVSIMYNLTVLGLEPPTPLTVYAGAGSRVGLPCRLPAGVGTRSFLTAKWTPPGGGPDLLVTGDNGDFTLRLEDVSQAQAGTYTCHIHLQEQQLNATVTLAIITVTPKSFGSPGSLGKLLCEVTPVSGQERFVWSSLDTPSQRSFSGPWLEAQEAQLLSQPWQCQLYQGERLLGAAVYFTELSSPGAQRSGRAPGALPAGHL

Cyno LAG-3 = assay: SPR binding to recombinant soluble cyno LAG-3; parameters: species or system cynomolgus monkey
LAG-3 = target: T2, LAG-3 (Homo sapiens, UniProt P18627); assay: Receptor occupancy on patient T cells (direct binding assay, flow cytometry); assay type: in vivo; conditions: patients, early time points, FIG. 10C
T2 construct: PBMCs were isolated from fresh whole blood samples from patients; endogenous in cells; host or cells: T cells in PBMCs from patient whole blood
T2 sequence (P18627 23-525): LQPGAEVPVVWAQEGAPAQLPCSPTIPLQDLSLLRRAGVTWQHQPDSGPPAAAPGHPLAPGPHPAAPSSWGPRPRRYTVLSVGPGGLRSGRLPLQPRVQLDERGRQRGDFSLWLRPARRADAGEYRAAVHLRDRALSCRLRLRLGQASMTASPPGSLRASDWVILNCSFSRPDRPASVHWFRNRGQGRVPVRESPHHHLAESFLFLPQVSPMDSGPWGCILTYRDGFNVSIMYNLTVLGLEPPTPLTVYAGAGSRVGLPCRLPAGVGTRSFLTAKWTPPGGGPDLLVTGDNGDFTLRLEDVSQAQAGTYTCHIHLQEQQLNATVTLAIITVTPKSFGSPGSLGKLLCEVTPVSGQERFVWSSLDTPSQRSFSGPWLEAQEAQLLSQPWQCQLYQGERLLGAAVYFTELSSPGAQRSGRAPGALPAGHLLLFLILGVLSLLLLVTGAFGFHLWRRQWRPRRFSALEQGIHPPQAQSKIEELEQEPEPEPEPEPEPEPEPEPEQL
Source text: The saturation binding aliquot was run in parallel as a control to assess the range of the assay.

[1] = tested on: primary human CD4+ T cells; assay: Mixed lymphocyte reaction (MLR) assay, IL-2 secretion; assay type: cell-based; conditions: 48 hours, antibody alone, FIG. 4
Procedure: This example describes the ability of an exemplary anti-LAG-3 antibody agent to activate primary human T cells in vitro. […] In this MLR assay, primary human CD4+ T cells were mixed with monocyte-derived dendritic cells from a different donor. In these studies, dendritic cells and allogeneic CD4+ T cells were incubated in the presence of an exemplary anti-LAG-3 antibody agent or isotype control for 48 hours, and activation of T cells was determined by measuring the level of interleukin-2 (IL-2) secretion.

LAG-3/MHC-II binding = target: T3, LAG-3/MHC-II binding (Homo sapiens, UniProt P18627); assay: LAG-3 reporter gene assay (LAG-3 Jurkat cells / MHC class II Raji cells, NFAT readout); assay type: cell-based; conditions: FIG. 3C
T3 construct: expressed in transfected cells; host or cells: Jurkat cells (NFAT reporter)
T3 sequence (P18627 23-525): T2 sequence (P18627 23-525)
Source text: Specifically, this example uses Raji cells, which express high levels of endogenous MHC class II.

human PBMCs = assay: IL-2 release from SEB-stimulated human PBMCs; assay type: cell-based; conditions: 100 ng/mL SEB for 3 days, 5 donors, FIG. 5
Procedure: Specifically human PBMCs (from 5 donors) were stimulated with 100 ng/mL SEB for 3 days and then IL-2 induction was assessed.

In the case of `NC(=O)c1cccc2cn(-c3ccc([C@@H]4CCCNC4)cc3)nc12` [Niraparib, (3S)-3-[4-{7-(aminocarbonyl)-2H-indazol-2-yl}phenyl]piperidine], the IC90 (PARP activity; read-out: inhibitory concentration at 90% of control (IC90)) is listed as ~50 nM and the IC50 (PARP activity) is listed as ~4 nM.

In the case of “TSR-033: anti-LAG-3 antibody agent comprising a heavy chain of SEQ ID NO: 21 and a light chain of SEQ ID NO: 22”, the Kassoc (Human LAG-3) is reported as 1.3 × 10^5 (ms)^−1, the Kdissoc (Human LAG-3) is reported as 0.00013 s⁻¹ and the Kassoc (Cyno LAG-3) is reported as 1.1 × 10^5 (ms)^−1. The Kdissoc (Cyno LAG-3) was 0.00026 s⁻¹, the “receptor occupancy (RO)” value (LAG-3; 80 mg dose) was “approximately 50%” and the “receptor occupancy (RO)” value (LAG-3; 240 mg dose) was “approaches saturation”. The IL-2 production [1] was “dose-dependently increased IL-2 production”, the “disruption of binding of LAG-3 on Jurkat cells to MHC Class II expressing Raji cells” value (LAG-3/MHC-II binding) was “potent antagonist” and the IL-2 production (human PBMCs) was “dose-dependently increased IL-2 production”.
